Entries after “also recorded” stand apart in the source; their conditions may differ. Where two headings read alike, the source gives them in different places. Each block holds one compound with its values, some of them ahead of it. Where a SMILES comes first, the peptide text is derived from it. The star is where a group is joined. Cbz = O=C(OCc1ccccc1)*
Key:
CDK13 = biological target: T1, CDK13 (Homo sapiens, UniProt Q14004); assay: CDK13 degradation in MDA-MB-231 cells by immunoblotting; format: cell-based; conditions: 0.3 μM; for Protein Degradation (%DMSO control, 0.3 μM) CDK13: MDA-MB-231 cells, 15 h, immunoblotting, normalized against α-tubulin;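 for Protein Degradation (%DMSO control, 0.3 μM) CDK13: percent of CDK13 protein degraded relative to DMSO control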
T1 construct: Immunoblotting of CDK12 and CDK13 in MDA-MB-231 cells treated with increasing concentrations of ZLC491 for 15 h; endogenous in cells; host or cells: MDA-MB-231
Protocol: (§1) The degradation efficiency of the new molecules was assessed by immunoblotting after treatment with the compounds at 0.3 μM in MD-MBA-231 cells for 15 h.
(§2) To further characterize the compound, we determined the half-degradation concentration (DC50) values of ZLC491 in MDA-MB-231 cells. […] We also treated MDA-MB-231 cells with 1 μM ZLC491 at various time points.
(§3) (A) Immunoblotting of CDK12 and CDK13 in MDA-MB-231 cells treated with increasing concentrations of ZLC491 for 15 h (left). Percent remaining CDK12 and CDK13 proteins were plotted for DC50 determination (right). Protein levels were quantified using ImageJ and normalized to corresponding α-tubulin, then plotted using Graphpad Prism 8.0. The data were representative of three independent experiments; (B) immunoblotting of CDK12 and CDK13 proteins in MDA-MB-231 cells treated with ZLC491 for various time points; immunoblotting of CDK12 and CDK13 in HCC38 (C) and MDA-MB-436 (D) cells treated with increasing concentrations of ZLC491 for 15 h. α-Tubulin was used as a loading control. TEXT PRINTED IN THE PICTURE: (A) ZLC491: MDA-MB-231: CDK12 DC50 = 0.032μM; MDA-MB-231: CDK13 DC50 = 0.028μM DOUBTS OF THE COPYIST ABOUT THIS PICTURE: ZLC491, CDK12 DC50: 0.032 read from small print, the digits 3 and 2 are uncertain / ZLC491, CDK13 DC50: 0.028 read from small print, the last digit may be 8, 6 or 3
(§4) Generally, the tested cells were washed by ice-cold PBS buffer (Gibco) and lysed with an SDS lysis buffer (62.5 mM Tris, 2% w/v SDS, 10 glycerol, 50 mM DTT, 0.01% w/v bromophenol blue) on ice, after which the protein lysate samples were collected to 1.5 mL microcentrifuge tubes and treated with ultrasonic for 10 s, following with a 100 °C incubation for 10 min and a 4 °C centrifugation of 12000 rpm for 10 min. An equal amount of protein was loaded to 4–8% Bis-Tris gels and underwent an SDS-PAGE electrophoresis at 55V for 30 min and 95V for 90 min. Proteins on gels were then transferred to a polyvinylidene difluoride (PVDF) membrane (Bio-Rad) with a wet electro transfer system (Bio-Rad). The PVDF membrane was cut into bands and incubated in a blocking reagent (5% defatted milk powder dissolved in TBST) at room temperature for 1–2 h. Incubate membrane and primary antibody (at the appropriate dilution and diluent as recommended in the product webpage) at 4 °C for 12–14 h, followed with three times washes by TBST. The washed membranes were incubated in a secondary antibody solution (HRP-linked antirabbit IgG or antimouse IgG (CST), 1:2000 diluted into TBST) at room temperature for 2 h. Membranes were photographed in Amersham Imager 800 system using StarSignal plus regent (GenStar) or Omni-ECL reagent (EpiZyme). Compounds MG132, MLN4924, Bafilomycin A1 and pomalidomide were purchased from MedChemExpress (MCE) LLC.

CDK12 = CDK12 (Homo sapiens, UniProt Q9NYV4); assay: CDK12 degradation in MDA-MB-231 cells by immunoblotting; format: cell-based; parameters: Immunoblotting of CDK12 and CDK13 in MDA-MB-231 cells treated with increasing concentrations of ZLC491 for 15 h; endogenous in cells; host or cells: MDA-MB-231; conditions: 0.3 μM; for Protein Degradation (%DMSO control, 0.3 μM) CDK12: MDA-MB-231 cells, 15 h, immunoblotting, normalized against α-tubulin
Protocol: as §1, §2, §3, §4

Pharmacokinetics in rats = format: in vivo, rat
Protocol: We further evaluated the in vivo PK properties of compound ZLC491 and the counterpart 4m (without F substitution) in rats, and the results were summarized in Table 2. […] The PK profiles of F-containing compound ZLC491 were further improved.
The pharmacokinetic investigation was taken by Shanghai Medicilon Inc. (Project Code: 26048-23001-NG). Sprague–Dawley male rats (Specific pathogen Free (SPF), provided by Zhejiang Vital River Laboratory Animal Technology Co. Ltd.) were dosed with ZLC491 solution formulation (5% DMSO, 10% Solutol, 85% normal saline, 2.5 mg/kg for intravenous dose, 10 mg/kg for oral dose) or compound 4m solution formulation (5% DMSO, 10% Solutol, 85% (20%HP-β-CD), 2.5 mg/kg for intravenous dose, 10 mg/kg for oral dose). Blood samples were collected at 0.083, 0.25, 0.5, 1, 2, 4, 8, and 24 h in intravenous administration, 0.25, 0.5, 1, 2, 4, 6, 8, and 24 h in oral administration. The blood samples were collected from sets of three rats at each time point in labeled microcentrifuge tubes containing heparin sodium as an anticoagulant. Plasma samples were separated by centrifugation (2–8 °C, 6800g for 6 min) within 1 h and stored below −80 °C until bioanalysis. All samples were processed for analysis by precipitation using acetonitrile and analyzed with a partially validated LC/MS/MS method. Pharmacokinetic parameters were calculated using the noncompartmental analysis tool of WinNonlin Enterprise software.

[1] = parameters: method as in doi:10.1200/JCO.2020.38.15_suppl.3500, PMID 26200936; conditions: cited from earlier work
MDA-MB-231 cells = assay: Drug combination assay with ZLC491; format: cell-based, human
Protocol: (A) Transcription level of DDR genes in MDA-MB-231 cells determined by RT-qPCR upon the treatment with vehicle or ZLC491 at different doses for 12 h, ROR1 was used as a negative control; (B) immunoblotting of DDR proteins in MDA-MB-231 cells after the treatment of ZLC491 at different doses for 48 h; (C) cell antiproliferative activity of ZLC491 in multiple TNBC cells as well as several noncancerous cells. Cells were treated with the compound for 5 days; (D,E) antiproliferative potency of cisplatin or olaparib alone or combined with ZLC491 at different doses in MDA-MB-231 cells for 5 days. Data are plotted using the percentage of absorbance relative to DMSO controls. (F) IC50 values and combination index (CI) in drug combination assay. In this model, CI scores estimate the interaction between the two drugs. If CI < 1, the drugs have a synergistic effect and if CI > 1, the drugs have an antagonistic effect. CI = 1 means the drugs have an additive effect. ^aThe drug combination in the table refers to the starting concentration of the two combined drugs, that would both go through serial dilution when treating cells.
Tested cells were plated in 96-well or 384-well plates and incubated at 37 °C with or without 5% CO2. […] Cell proliferation was measured 5 days after compound treatment using Cell Counting Kit-8 (Selleck) according to the manufacturer’s instructions. […]

CDK12/13 [2] = assay: Mechanism study: pretreatment before ZLC491, immunoblotting of CDK12/13 in MDA-MB-231 cells; format: cell-based, human; conditions: 2 h pretreatment (1 μM MG132, 0.1 μM MLN4924, 0.1 μM bafilomycin, 5 μM pomalidomide, 8 μM compound 5), then 1 μM ZLC491 10 h
Protocol: We further investigated the mechanism of action of ZLC491-mediated CDK12/13 degradation. […] Additionally, pretreatment with CRBN ligand pomalidomide or the warhead compound 5 also reversed the ZLC491-mediated CDK12/13 degradation in MDA-MB-231 cells (Figure 4D,E).
Figure 4 ZLC491 induced CDK12/13 degradation in a CRBN- and proteasome-dependent fashion. Immunoblotting of CDK12 and CDK13 in MDA-MB-231 cells treated with 1 μM ZLC491 for 10 h with or without pretreatment with 1 μM MG132 (A), 0.1 μM MLN4924 (B), 0.1 μM bafilomycin (C), 5 μM pomalidomide (D) and 8 μM compound 5 (E) for 2 h; (F) immunoblotting of CDK12 and CDK13 in MDA-MB-231 cells treated with 1 μM ZLC491N for 10 h. α-Tubulin was used as a loading control.
as §4

CDK12/13 [3] = assay: Immunoblotting of CDK12/13 in MDA-MB-231 cells (time course, negative control, series comparison); format: cell-based, human; conditions: 1 μM, 10 h
Protocol: as §2, §3
Figure 4 ZLC491 induced CDK12/13 degradation in a CRBN- and proteasome-dependent fashion. […]

[4] = tested on: TNBC cells and noncancerous cells; assay: Cell proliferation assay of the negative control in multiple TNBC and noncancerous cells; format: cell-based, human; conditions: multiple TNBC and noncancerous cell lines, 5 days
Protocol: The antiproliferative effects of ZLC491 against TNBC cells were also evaluated. […] We thus investigated the synergistic effects of ZLC491 with DNA cross-linker cisplatin.
Tested cells were plated in 96-well or 384-well plates and incubated at 37 °C with or without 5% CO2. After overnight incubation, serial dilutions of compounds were added to the plate. Cell proliferation was measured 5 days after compound treatment using Cell Counting Kit-8 (Selleck) according to the manufacturer’s instructions.
Figure S3. Immunoblotting of CCNK in MDA-MB-231 cells treated with increasing concentrations of ZLC491 for 15 h.
Figure S4. Cell antiproliferative activity of ZLC491N in multiple TNBC cells as well as noncancerous cells. Cells were treated with the compound for 5 days. […]

[5] = parameters: method as in PMID 35938508; conditions: rats; cited from earlier work
[6] = male, Sprague-Dawley, rat, plasma, oral bioavailability, p.o. 10 mg/kg vs i.v. 2.5 mg/kg

Chain of CDK12 (Q9NYV4 whole entry): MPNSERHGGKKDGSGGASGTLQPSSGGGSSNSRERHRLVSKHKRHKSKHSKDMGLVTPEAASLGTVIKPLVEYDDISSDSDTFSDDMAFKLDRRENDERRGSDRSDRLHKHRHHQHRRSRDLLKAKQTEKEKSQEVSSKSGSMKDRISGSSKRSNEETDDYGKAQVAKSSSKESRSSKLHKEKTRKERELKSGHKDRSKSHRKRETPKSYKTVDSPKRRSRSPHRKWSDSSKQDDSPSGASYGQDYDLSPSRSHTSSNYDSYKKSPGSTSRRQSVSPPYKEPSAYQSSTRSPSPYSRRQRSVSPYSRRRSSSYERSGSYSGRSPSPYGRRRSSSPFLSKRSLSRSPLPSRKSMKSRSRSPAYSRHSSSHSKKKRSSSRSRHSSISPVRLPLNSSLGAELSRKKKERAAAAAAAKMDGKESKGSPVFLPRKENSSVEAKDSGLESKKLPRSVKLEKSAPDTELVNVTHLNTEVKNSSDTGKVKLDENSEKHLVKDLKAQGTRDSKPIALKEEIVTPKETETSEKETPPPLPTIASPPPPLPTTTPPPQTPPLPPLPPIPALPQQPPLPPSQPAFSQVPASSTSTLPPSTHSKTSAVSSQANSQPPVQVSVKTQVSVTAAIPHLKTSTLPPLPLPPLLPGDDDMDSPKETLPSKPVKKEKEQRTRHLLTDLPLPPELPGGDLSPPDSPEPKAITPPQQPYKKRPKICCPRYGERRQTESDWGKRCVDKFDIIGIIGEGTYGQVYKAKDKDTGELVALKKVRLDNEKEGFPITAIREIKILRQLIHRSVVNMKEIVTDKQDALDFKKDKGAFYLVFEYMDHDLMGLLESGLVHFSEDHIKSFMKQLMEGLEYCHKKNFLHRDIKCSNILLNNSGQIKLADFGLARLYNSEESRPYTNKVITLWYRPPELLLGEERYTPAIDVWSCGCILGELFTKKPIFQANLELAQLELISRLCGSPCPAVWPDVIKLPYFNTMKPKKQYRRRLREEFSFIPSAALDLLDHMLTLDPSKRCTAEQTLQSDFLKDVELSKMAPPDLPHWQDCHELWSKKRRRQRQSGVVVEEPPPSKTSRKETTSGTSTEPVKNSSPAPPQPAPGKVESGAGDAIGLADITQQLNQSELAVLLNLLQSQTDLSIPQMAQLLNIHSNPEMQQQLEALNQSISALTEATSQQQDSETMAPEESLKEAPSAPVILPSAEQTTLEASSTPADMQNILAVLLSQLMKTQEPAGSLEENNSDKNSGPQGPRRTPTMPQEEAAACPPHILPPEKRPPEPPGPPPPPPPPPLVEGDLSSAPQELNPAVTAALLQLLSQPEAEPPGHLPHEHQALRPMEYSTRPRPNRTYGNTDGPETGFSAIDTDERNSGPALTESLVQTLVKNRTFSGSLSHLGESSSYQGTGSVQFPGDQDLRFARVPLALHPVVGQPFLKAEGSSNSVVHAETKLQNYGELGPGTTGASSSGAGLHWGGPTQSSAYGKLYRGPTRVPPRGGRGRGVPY
Chain of CDK12 (O75909 whole entry partner): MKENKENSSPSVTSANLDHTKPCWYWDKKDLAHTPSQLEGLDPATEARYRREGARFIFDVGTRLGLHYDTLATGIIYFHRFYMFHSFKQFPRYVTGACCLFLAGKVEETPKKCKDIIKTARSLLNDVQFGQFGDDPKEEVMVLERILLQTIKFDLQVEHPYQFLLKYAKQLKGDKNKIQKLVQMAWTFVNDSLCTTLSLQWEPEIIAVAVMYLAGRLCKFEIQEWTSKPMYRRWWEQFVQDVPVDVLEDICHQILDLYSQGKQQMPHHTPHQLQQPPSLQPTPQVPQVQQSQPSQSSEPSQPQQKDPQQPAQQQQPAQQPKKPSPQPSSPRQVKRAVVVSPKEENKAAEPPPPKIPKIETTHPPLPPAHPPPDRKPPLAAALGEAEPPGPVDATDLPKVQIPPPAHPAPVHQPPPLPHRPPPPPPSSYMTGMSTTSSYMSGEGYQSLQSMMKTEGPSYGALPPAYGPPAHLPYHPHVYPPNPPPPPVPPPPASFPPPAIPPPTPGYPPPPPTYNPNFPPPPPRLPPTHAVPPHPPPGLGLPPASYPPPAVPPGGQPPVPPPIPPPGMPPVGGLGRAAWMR
T1 sequence (Q14004 whole entry): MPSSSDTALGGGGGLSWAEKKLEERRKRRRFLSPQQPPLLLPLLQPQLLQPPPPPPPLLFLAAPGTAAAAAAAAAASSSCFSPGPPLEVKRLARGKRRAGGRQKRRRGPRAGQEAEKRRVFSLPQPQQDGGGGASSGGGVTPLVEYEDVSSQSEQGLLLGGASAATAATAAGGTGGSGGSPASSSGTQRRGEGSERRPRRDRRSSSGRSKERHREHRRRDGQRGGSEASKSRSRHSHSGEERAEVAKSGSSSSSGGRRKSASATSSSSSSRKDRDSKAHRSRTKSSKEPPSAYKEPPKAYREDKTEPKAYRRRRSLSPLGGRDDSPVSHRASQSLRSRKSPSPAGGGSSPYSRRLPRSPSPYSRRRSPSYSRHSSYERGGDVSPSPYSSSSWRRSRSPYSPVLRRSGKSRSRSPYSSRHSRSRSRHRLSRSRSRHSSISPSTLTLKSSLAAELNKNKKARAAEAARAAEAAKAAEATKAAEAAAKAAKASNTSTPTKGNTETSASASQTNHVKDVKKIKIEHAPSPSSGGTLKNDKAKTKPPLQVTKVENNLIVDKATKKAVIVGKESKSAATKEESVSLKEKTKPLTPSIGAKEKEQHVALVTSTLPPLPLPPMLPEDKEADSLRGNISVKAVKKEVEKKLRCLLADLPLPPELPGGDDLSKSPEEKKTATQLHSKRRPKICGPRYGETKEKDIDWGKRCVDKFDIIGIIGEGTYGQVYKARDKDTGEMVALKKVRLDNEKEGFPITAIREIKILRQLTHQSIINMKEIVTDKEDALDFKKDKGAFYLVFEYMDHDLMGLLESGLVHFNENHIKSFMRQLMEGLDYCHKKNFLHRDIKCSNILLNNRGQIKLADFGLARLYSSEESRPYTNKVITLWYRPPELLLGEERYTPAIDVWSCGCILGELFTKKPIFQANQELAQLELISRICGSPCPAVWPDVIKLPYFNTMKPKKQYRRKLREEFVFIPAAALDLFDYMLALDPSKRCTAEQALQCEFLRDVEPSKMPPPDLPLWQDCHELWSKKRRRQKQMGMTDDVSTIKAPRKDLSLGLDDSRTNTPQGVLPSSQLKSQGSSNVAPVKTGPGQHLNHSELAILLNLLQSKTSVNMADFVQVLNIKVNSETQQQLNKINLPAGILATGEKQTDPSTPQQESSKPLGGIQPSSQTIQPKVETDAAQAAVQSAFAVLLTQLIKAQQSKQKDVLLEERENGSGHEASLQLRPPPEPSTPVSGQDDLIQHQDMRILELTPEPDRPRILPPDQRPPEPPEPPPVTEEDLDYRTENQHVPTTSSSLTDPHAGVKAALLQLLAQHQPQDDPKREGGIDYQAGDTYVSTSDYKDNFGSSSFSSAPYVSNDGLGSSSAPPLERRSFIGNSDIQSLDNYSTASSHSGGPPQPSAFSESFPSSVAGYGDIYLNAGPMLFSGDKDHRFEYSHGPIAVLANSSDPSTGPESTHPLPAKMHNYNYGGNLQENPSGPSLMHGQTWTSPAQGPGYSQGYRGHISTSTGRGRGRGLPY
T1 sequence (O75909 whole entry partner): as the sequence (O75909 whole entry partner) above

Protein Degradation (%DMSO control, 0.3 μM) CDK13 (CDK13): 85%
Degradation rates of CDK13 at 0.3 μM (CDK13; supplementary CSV): 85%
Protein Degradation (%DMSO control, 0.3 μM) CDK12 (CDK12): 70%
Degradation rates of CDK12 at 0.3 μM (CDK12; supplementary CSV): 70%
CL (Pharmacokinetics in rats; i.v. 2.5 mg/kg): 9.85 mL/min/kg
bioavailability (Pharmacokinetics in rats; [6]): 16%
bioavailability at 24 h (Pharmacokinetics in rats; [6]): 16.5%
SMILES: N#Cc1ccc(N[C@H]2CC[C@H](N(C(=O)NCc3ccccc3)c3ccc(N4CCN(C5CCN(c6ccc7c(c6)C(=O)N(C6CCC(=O)NC6=O)C7=O)CC5)CC4)cc3)CC2)nc1 (some centres unmarked) [4m, 3-Benzyl-1-((1r,4r)-4-((5-cyanopyridin-2-yl)amino)cyclohexyl)-1-(4-(4-(1-(2-(2,6-dioxopiperidin-3-yl)-1,3-dioxoisoindolin-5-yl)piperidin-4-yl)piperazin-1-yl)phenyl)urea]

SMILES: N#Cc1ccc(O[C@H]2CC[C@H](NC(=O)c3ccc(N4CCC(CN5CCN(c6cc7c(cc6F)C(=O)N(C6CCC(=O)NC6=O)C7=O)CC5)CC4)nn3)CC2)cc1Cl (some centres unmarked) [ARV-110]
oral bioavailability [1]: good oral bioavailability

SMILES: N.N.[Cl][Pt][Cl] [Cisplatin, cisplatin]
interaction with ZLC491 in dose–response assays (MDA-MB-231 cells; MDA-MB-231 cells, 5 days): potent synergy

SMILES: CC(C)C[C@@H](C=O)NC(=O)[C@H](CC(C)C)NC(=O)[C@H](CC(C)C)NC(=O)OCc1ccccc1 [MG132] (Cbz-Leu-Leu-Leu-aldehyde)
effect of pretreatment on ZLC491-induced CDK12/13 degradation (CDK12/13 [2]): significantly blocked

SMILES: NS(=O)(=O)OC[C@@H]1C[C@@H](n2ccc3c(N[C@H]4CCc5ccccc54)ncnc32)C[C@@H]1O [MLN4924]
effect of pretreatment on ZLC491-induced CDK12/13 degradation (CDK12/13 [2]): significantly blocked

IC50 (MDA-MB-231 cells; Homo sapiens, 120 h, drug A alone, starting concentration 25 μM, MDA-MB-231, 5 days, read-out: IC50 (μM), Drug A: ZLC491 25μM: 0μM): 7.24 µM
SMILES: O=C(c1cc(Cc2n[nH]c(=O)c3ccccc23)ccc1F)N1CCN(C(=O)C2CC2)CC1 [Olaparib, olaparib]

SMILES: CN1C(=O)CCC(N2C(=O)c3cc(F)c(N4CCC(N5CCN(c6ccc(N(C(=O)NCc7ccccc7)[C@H]7CC[C@H](Nc8ccc(C#N)cn8)CC7)cc6)CC5)CC4)cc3C2=O)C1=O (some centres unmarked) [ZLC491N, 3-Benzyl-1-((1r,4r)-4-((5-cyanopyridin-2-yl)amino)cyclohexyl)-1-(4-(4-(1-(6-fluoro-2-(1-methyl-2,6-dioxopiperidin-3-yl)-1,3-dioxoisoindolin-5-yl)piperidin-4-yl)piperazin-1-yl)phenyl)urea]
degradative effect on CDK12/13 (CDK12/13 [3]): no degradative effect
antiproliferative effects [4]: no antiproliferative effects

Protein Degradation (%DMSO control, 0.3 μM) CDK13 (CDK13): 84%
Protein Degradation (%DMSO control, 0.3 μM) CDK12 (CDK12): 75%
SMILES: N#Cc1ccc(N[C@H]2CC[C@H](N(C(=O)NCc3ccccc3)c3ccc(N4CCN(C(=O)CNc5ccc6c(c5)C(=O)N(C5CCC(=O)NC5=O)C6=O)CC4)cc3)CC2)nc1 (some centres unmarked) [compound 3]
clearance [5]: high
oral bioavailability [5]: not orally bioavailable; also recorded: nondetectable

SMILES: N#Cc1ccc(N[C@H]2CC[C@H](N(C(=O)NCc3ccccc3)c3ccc(N4CCNCC4)cc3)CC2)nc1 [compound 5, 3-Benzyl-1-((1r,4r)-4-((5-cyanopyridin-2-yl)amino)cyclohexyl)-1-(4-(piperazin-1-yl)phenyl)urea]
effect of pretreatment on ZLC491-induced CDK12/13 degradation (CDK12/13 [2]): reversed

SMILES: Nc1cccc2c1C(=O)N(C1CCC(=O)NC1=O)C2=O (centres unmarked) [pomalidomide]
effect of pretreatment on ZLC491-induced CDK12/13 degradation (CDK12/13 [2]): reversed

Source: paper PMC11513923, “Discovery of ZLC491 as a Potent, Selective, and Orally Bioavailable CDK12/13 PROTAC Degrader” (Journal of Medicinal Chemistry, 2024)
